Measured values as given in patent publication US9662327B2 (AGIOS PHARMACEUTICALS, INC, priority 2011, dated 2017).

Experiments:
[1] = molecular target: IDH1 R132H (Homo sapiens (Human), UniProt O75874, R132H); assay: Assays for IDH1 R132H Inhibitors (NADPH/aKG, resazurin detection); format: biochemical; details: IDH1 R132H enzyme, Table 3; read-out: R132H IC50
Summary of the method: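 Substrate mix held 8 uM NADPH plus 2 mM aKG; buffer was 20 mM Tris pH 7.5 with 150 mM NaCl, 10 mM MgCl2, 0.03% BSA. After 50 min room-temperature reaction, NADPH remaining was detected with 30 μM resazurin mix over 5 min.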

[2] = system: HT1080 cells; assay: Cellular assay for IDH1m inhibitors: inhibition of 2-HG production in HT1080 cells (LC-MS); format: cell-based
Procedure: (§1) Cells (e.g., HT1080 or U87MG) are grown in T125 flasks in DMEM containing 10% FBS, 1× penicillin/streptomycin and 500 ug/mL G418. They are harvested by trypsin and seeded into 96 well white bottom plates at a density of 5000 cell/well in 100 ul/well in DMEM with 10% FBS. No cells are plates in columns 1 and 12. Cells are incubated overnight at 37 C in 5% CO2. The next day compounds are made up at 2× concentration and 100 ul are added to each cell well. The final concentration of DMSO is 0.2% and the DMSO control wells are plated in row G. The plates are then placed in the incubator for 48 hours. At 48 hours, 100 ul of media is removed from each well and analyzed by LC-MS for 2-HG concentrations. The cell plate is placed back in the incubator for another 24 hours. At 72 hours post compound addition, 10 mL/plate of Promega Cell Titer Glo reagent is thawed and mixed. The cell plate is removed from the incubator and allowed to equilibrate to room temperature. Then 100 ul of reagent is added to each well of media. The cell plate is then placed on an orbital shaker for 10 minutes and then allowed to sit at room temperature for 20 minutes. The plate is then read for luminescence with an integration time of 500 ms.

[3] = system: U87R132H (U87MG) cells; assay: Cellular assay for IDH1m inhibitors: inhibition of 2-HG production in U87MG (U87R132H) cells (LC-MS); format: cell-based; details: 48 hours
Procedure: as §1

[4] = Homo sapiens, HT-1080, 48 hours

Chain of IDH1 R132H (O75874 whole entry R132H): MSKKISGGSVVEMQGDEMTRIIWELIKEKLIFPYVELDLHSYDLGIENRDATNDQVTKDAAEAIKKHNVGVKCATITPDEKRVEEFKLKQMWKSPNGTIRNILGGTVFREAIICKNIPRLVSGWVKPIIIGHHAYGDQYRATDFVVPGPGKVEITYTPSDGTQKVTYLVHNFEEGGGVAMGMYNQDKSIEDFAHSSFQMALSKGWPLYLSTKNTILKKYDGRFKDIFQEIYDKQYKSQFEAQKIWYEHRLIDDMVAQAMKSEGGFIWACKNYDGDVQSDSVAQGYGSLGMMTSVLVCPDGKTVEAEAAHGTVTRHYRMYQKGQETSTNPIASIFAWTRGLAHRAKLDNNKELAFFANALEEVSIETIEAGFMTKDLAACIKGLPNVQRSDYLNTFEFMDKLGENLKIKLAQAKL

SMILES | IC50 [1] | IC50 [2, 4] | IC50 ([3]; Homo sapiens, U-87 MG) | IC50 ([2]; 48 hours) | IC50 [3]
CC(C)[C@@H]1CN(c2nc(C3CC3)c3c(c2C#N)CC(C)(C)OC3)CCN1C(=O)CC1CCO1 (stereo partly drawn) [Compound 473, 8-cyclopropyl-6-((3R)-3-isopropyl-4-(2-(oxetan-2-yl)acetyl)piperazin-1-yl)-3,3-dimethyl-3,4-dihydro-1H-pyrano[3,4-c]pyridine-5-carbonitrile] | < 0.5 µM | < 0.5 µM | 0.5 to 1 µM | – | –
COC(=O)[C@@H]1C[C@H]1C(=O)N1CCN(c2nc(C3CC3)c3c(c2C#N)CC(C)(C)OC3)C[C@H]1C(C)C [Compound 454] | < 0.5 µM | – | – | 0.5 to 1 µM | 0.5 to 1 µM
CC1(C)Cc2c(C#N)c(N3CCN(C(=O)CC(F)(F)F)C(C4CC4)C3)nc(C3CC3)c2CO1 (centres unmarked) [Compound 430, 8-cyclopropyl-6-(3-cyclopropyl-4-(3,3,3-trifluoropropanoyl)piperazin-1-yl)-3,3-dimethyl-3,4-dihydro-1H-pyrano[3,4-c]pyridine-5-carbonitrile] | < 0.5 µM | 0.5 to 1 µM | < 0.5 µM | – | –
CC(C)[C@@H]1CN(c2nc(C3CC3)c3c(c2C#N)CC(C)(C)OC3)CCN1C(=O)c1ccon1 [Compound 427, (R)-8-cyclopropyl-6-(3-isopropyl-4-(isoxazole-3-carbonyl)piperazin-1-yl)-3,3-dimethyl-3,4-dihydro-1H-pyrano[3,4-c]pyridine-5-carbonitrile] | 0.5 to 1 µM | 1 to 10 µM | 1 to 10 µM | – | –
COC(=O)N1CCc2c(C#N)c(N3CCN(C(=O)C4CC4)[C@H](C4CC4)C3)nc(C3CC3)c2C1 [Compound 494, (R)-methyl 5-cyano-6-(4-(cyclopropanecarbonyl)-3-cyclopropylpiperazin-1-yl)-8-cyclopropyl-3,4-dihydro-2,7-naphthyridine-2(1H)-carboxylate] | 0.5 to 1 µM | < 0.5 µM | < 0.5 µM | – | –
CC(C)[C@@H]1CN(c2nc(C3CC3)c3c(c2C#N)CC(C)(C)OC3)CCN1C(=O)CC(F)(F)F [Compound 423, (R)-8-cyclopropyl-6-(3-isopropyl-4-(3,3,3-trifluoropropanoyl)piperazin-1-yl)-3,3-dimethyl-3,4-dihydro-1H-pyrano[3,4-c]pyridine-5-carbonitrile] | < 0.5 µM | 1 to 10 µM | 0.5 to 1 µM | – | –
CC(C)[C@@H]1CN(c2nc(C3CC3)c3c(c2C#N)CC(C)(C)OC3)CCN1C(=O)CCF [Compound 437, (R)-8-cyclopropyl-6-(4-(3-fluoropropanoyl)-3-isopropylpiperazin-1-yl)-3,3-dimethyl-3,4-dihydro-1H-pyrano[3,4-c]pyridine-5-carbonitrile] | < 0.5 µM | 1 to 10 µM | 1 to 10 µM | – | –
COCCC(=O)N1CCN(c2nc(C3CC3)c3c(c2C#N)CCN(S(C)(=O)=O)C3)C[C@H]1C1CC1 [Compound 479, (R)-1-cyclopropyl-3-(3-cyclopropyl-4-(3-methoxypropanoyl)piperazin-1-yl)-7-(methylsulfonyl)-5,6,7,8-tetrahydro-2,7-naphthyridine-4-carbonitrile] | < 0.5 µM | 0.5 to 1 µM | < 0.5 µM | – | –
CC1(C)Cc2c(C#N)c(N3CCN(C(=O)CC(F)(F)F)[C@H](C4CC4)C3)nc(C3CC3)c2CO1 [Compound 435, (R)-8-cyclopropyl-6-(3-cyclopropyl-4-(3,3,3-trifluoropropanoyl)piperazin-1-yl)-3,3-dimethyl-3,4-dihydro-1H-pyrano[3,4-c]pyridine-5-carbonitrile] | < 0.5 µM | < 0.5 µM | < 0.5 µM | – | –
C#CC(=O)N1CCc2c(C#N)c(N3CCN(C(=O)CCOC)[C@H](C4CC4)C3)nc(C3CC3)c2C1 [Compound 488, (R)-1-cyclopropyl-3-(3-cyclopropyl-4-(3-methoxypropanoyl)piperazin-1-yl)-′7-propioloyl-5,6,7,8-tetrahydro-2,7-naphthyridine-4-carbonitrile] | – | < 0.5 µM | < 0.5 µM | – | –

Second part, led by results:

IC50 [1] | IC50 [2, 4] | IC50 ([3]; Homo sapiens, U-87 MG) | SMILES | IC50 ([2]; 48 hours) | IC50 [3]
< 0.5 µM | 1 to 10 µM | 1 to 10 µM | [2H]C([2H])([2H])C([2H])(C([2H])([2H])[2H])[C@@]1([2H])N(C(=O)CC(F)(F)F)C([2H])([2H])C([2H])([2H])N(c2nc(C3CC3)c3c(c2C#N)CC(C)(C)OC3)C1([2H])[2H] [Compound 477, (R)-8-cyclopropyl-3,3-dimethyl-6-(2,2,3,5,5-pentadeuterio-3-(1,1,1,3,3,3-hexadeuteriopropan-2-yl)-4-(3,3,3-trifluoropropanoyl)piperazin-1-yl)-3,4-dihydro-1H-pyrano[3,4-c]pyridine-5-carbonitrile] | – | –
< 0.5 µM | 0.5 to 1 µM | 0.5 to 1 µM | CC(O)CC(=O)N1CCN(c2nc(C3CC3)c3c(c2C#N)CC(C)(C)OC3)C[C@H]1C1CC1 (stereo partly drawn) [Compound 442, 8-cyclopropyl-6-((3R)-3-cyclopropyl-4-(3-hydroxybutanoyl)piperazin-1-yl)-3,3-dimethyl-3,4-dihydro-1H-pyrano[3,4-c]pyridine-5-carbonitrile] | – | –
< 0.5 µM | < 0.5 µM | < 0.5 µM | [2H]C1([2H])CN(c2nc(C3CC3)c3c(c2C#N)CC(C)(C)OC3)C([2H])([2H])[C@@]([2H])(C([2H])(C([2H])([2H])[2H])C([2H])([2H])[2H])N1C(=O)CCOC [Compound 438, (R)-8-cyclopropyl-3,3-dimethyl-6-(2,2,3,5,5-pentadeuterio-4-(3-methoxypropanoyl)-3-(perdeuteriopropan-2-yl)piperazin-1-yl)-3,4-dihydro-1H-pyrano[3,4-c]pyridine-5-carbonitrile] | – | –
< 0.5 µM | < 0.5 µM | < 0.5 µM | COCCC(=O)N1CCN(c2nc(C3CC3)c3c(c2C#N)CC(C)(C)OC3)C[C@H]1C1CC1 [Compound 434, (R)-8-cyclopropyl-6-(3-cyclopropyl-4-(3-methoxypropanoyl)piperazin-1-yl)-3,3-dimethyl-3,4-dihydro-1H-pyrano[3,4-c]pyridine-5-carbonitrile] | – | –
< 0.5 µM | 0.5 to 1 µM | 0.5 to 1 µM | CC(C)OC(=O)CCC(=O)N1CCN(c2nc(C3CC3)c3c(c2C#N)CC(C)(C)OC3)C[C@H]1C(C)C [Compound 457, (R)-isopropyl 4-(4-(5-cyano-8-cyclopropyl-3,3-dimethyl-3,4-dihydro-1H-pyrano[3,4-c]pyridin-6-yl)-2-isopropylpiperazin-1-yl)-4-oxobutanoate] | – | –
< 0.5 µM | < 0.5 µM | < 0.5 µM | CSCC(=O)N1CCN(c2nc(C3CC3)c3c(c2C#N)CC(C)(C)OC3)C[C@H]1C(C)C [Compound 445, (R)-8-cyclopropyl-6-(3-isopropyl-4-(2-(methylthio)acetyl)piperazin-1-yl)-3,3-dimethyl-3,4-dihydro-1H-pyrano[3,4-c]pyridine-5-carbonitrile] | – | –
< 0.5 µM | 1 to 10 µM | 1 to 10 µM | CC(C)[C@@H]1CN(c2nc(C3CC3)c3c(c2C#N)CC(C)(C)OC3)CCN1C(=O)CCCO [Compound 443, (R)-8-cyclopropyl-6-(4-(4-hydroxybutanoyl)-3-isopropylpiperazin-1-yl)-3,3-dimethyl-3,4-dihydro-1H-pyrano[3,4-c]pyridine-5-carbonitrile] | – | –
< 0.5 µM | < 0.5 µM | < 0.5 µM | C#CC(=O)N1CCc2c(C3CC3)nc(N3CCN(C(=O)CCOC)[C@H](C4CC4)C3)c(C#N)c2C1 [Compound 486, (R)-1-cyclopropyl-3-(3-cyclopropyl-4-(3-methoxypropanoyl)piperazin-1-yl)-6-propioloyl-5,6,7,8-tetrahydro-2,6-naphthyridine-4-carbonitrile] | – | –
